# How the values were obtained:
# blackgrass [1] = test: Test C preemergence; assay type: in vivo, Alopecurus myosuroides; settings: for Blackgrass plant response rating: preemergence, scale 0 (no effect) to 100 (complete control)
# Outline: (§1)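 Whole-plant greenhouse test with surfactant-containing solvent formulation, applied preemergence to sown loam–sand pots or postemergence to 2–18 cm plants. Scored by eye 13 to 15 days on, 0–100 scale.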
# wheat, winter = test: Test C preemergence; assay type: in vivo, Triticum aestivum; settings: for Wheat plant response rating: preemergence, scale 0 (no effect) to 100 (complete control)
# Outline: as §1
# large (Lg) crabgrass = test: Test C preemergence; assay type: in vivo, Digitaria sanguinalis; settings: for Crabgrass, Large plant response rating: preemergence, scale 0 (no effect) to 100 (complete control)
# Outline: as §1
# wheat = test: Test A postemergence; assay type: in vivo, Triticum aestivum
# Outline: (§2)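 Scoring: eye-based comparison with untreated controls, 0 for no effect through 100 for complete control, at about day 10. Treatments: directed soil spray preemergence; foliar spray postemergence on 2–10 cm plants at the one- to two-leaf stage. Medium: loam soil with sand.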
# soybean [2] = test: Test C postemergence; assay type: in vivo, Glycine max; settings: for Plant response rating, Soybean / Soybean plant response rating: scale 0 to 100 (0 no effect, 100 complete control)
# Outline: as §1
# barnyardgrass = test: Test A preemergence; assay type: in vivo, Echinochloa crus-galli
# Outline: as §2
# morningglory = test: Test A postemergence; assay type: in vivo, Ipomoea spp.
# Outline: as §2
# blackgrass [3] = test: Test C postemergence; assay type: in vivo, Alopecurus myosuroides; settings: for Plant response rating, Blackgrass / Blackgrass plant response rating: scale 0 to 100 (0 no effect, 100 complete control)
# Outline: as §1
# soybean [4] = test: Test C preemergence; assay type: in vivo, Glycine max; settings: for Soybean plant response rating: preemergence, scale 0 (no effect) to 100 (complete control)
# Outline: as §1
# giant foxtail = test: Test C postemergence; assay type: in vivo, Setaria faberii; settings: for Plant response rating, Foxtail, Giant / Foxtail, Giant plant response rating: scale 0 to 100 (0 no effect, 100 complete control)
# Outline: as §1
# rice = test: Test B flooded paddy test; assay type: in vivo, Oryza sativa; settings: Flood, 250 g ai/ha; 0 to 100 scale where 0 is no effect and 100 is complete control
# Outline: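 Flooded to 3 cm at the 2-leaf stage, pots received compound through the paddy water and were kept at that depth under greenhouse conditions. After 13–15 days, effect was rated by eye relative to controls, 0 = none and 100 = complete control.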
# ragweed = test: Test C postemergence; assay type: in vivo, Ambrosia elatior; settings: for Plant response rating, Ragweed / Ragweed plant response rating: scale 0 to 100 (0 no effect, 100 complete control)
# Outline: as §1
# oilseed rape = test: Test C postemergence; assay type: in vivo, Brassica napus; settings: for Plant response rating, Oilseed Rape / Oilseed Rape plant response rating: scale 0 to 100 (0 no effect, 100 complete control); for Oilseed Rape plant response rating: 31 g ai/ha
# Text: Seeds of plant species selected from blackgrass (Alopecurus myosuroides), Italian ryegrass (Lolium multiflorum), wheat, winter (winter wheat, Triticum aestivum), galium (catchweed bedstraw, Galium aparine), corn (Zea mays), large (Lg) crabgrass (Digitaria sanguinalis), giant foxtail (Setaria faberii), johnsongrass (Sorghum halepense), lambsquarters (Chenopodium album), morningglory (Ipomoea coccinea), yellow nutsedge (Cyperus esculentus), pigweed (Amaranthus retroflexus), ragweed (common ragweed, Ambrosia elatior), soybean (Glycine max), barnyardgrass (Echinochloa crus-galli), oilseed rape (Brassica napus), waterhemp (common waterhemp, Amaranthus rudis), kochia (Kochia scoparia), wild oat (Avena fatua), surinam grass (Brachiaria decumbens), foxtail, green (green foxtail, Setaria viridis), goosegrass (Eleusine indica), bromegrass, downy (downy bromegrass, Bromus tectorum), nightshade (eastern black nightshade, Solanum ptycanthum), cocklebur (common cocklebur, Xanthium strumarium), cupgrass, woolly (woolly cupgrass, Eriochloa villosa), bermudagrass (Cynodon dactylon), sunflower, (common oilseed sunflower, Helianthus annuus), Russian thistle (Salsola kali), and velvetleaf (Abutilon theophrasti) were planted into a blend of loam soil and sand and treated preemergence with test chemicals formulated in a non-phytotoxic solvent mixture which included a surfactant.
# At the same time, plants selected from these crop and weed species and also barley, winter (winter barley, Hordeum vulgare), windgrass (Apera spica-venti), chickweed (common chickweed, Stellaria media), deadnettle (henbit deadnettle, Lamium amplexicaule), and canarygrass (littleseed canarygrass, Phalaris minor) were planted in pots containing Redi-Earth® planting medium (Scotts Company, 14111 Scottslawn Road, Marysville, Ohio 43041) comprising spaghnum peat moss, vermiculite, wetting agent and starter nutrients and treated with postemergence applications of test chemicals formulated in the same manner. Plants ranged in height from 2 to 18 cm (1- to 4-leaf stage) for postemergence treatments. Treated plants and controls were maintained in a greenhouse for 13 to 15 days, after which time all species were compared to controls and visually evaluated. Plant response ratings, summarized in Table C, are based on a scale of 0 to 100 where 0 is no effect and 100 is complete control. A dash (-) response means no test result.
# [5] = Preemergence, 31 g ai/ha, scale 0 to 100, 0 no effect, 100 complete control
# [6] = 125 g ai/ha, 0 to 100 scale where 0 is no effect and 100 is complete control
# [7] = 500 g ai/ha, 0 to 100 scale, 0 no effect, 100 complete control
# [8] = Postemergence, 31 g ai/ha, 13 to 15 days
# [9] = 16 g ai/ha, postemergence, 0 is no effect, 100 is complete control
# [10] = 125 g ai/ha, postemergence, visual rating
# [11] = 31 g ai/ha, postemergence, visual rating, 13 to 15 days
# [12] = postemergence, visual rating, 13 to 15 days
# [13] = 500 g ai/ha, 0 to 100 scale where 0 is no effect and 100 is complete control
# [14] = Postemergence, 62 g ai/ha, 13 to 15 days
smiles,measurement,setting,value
FC(F)(F)c1cnn(-c2ccccc2Oc2ncc(Cl)cn2)c1 [Compound 16],Blackgrass plant response rating,blackgrass [1]; 62 g ai/ha,90
same,Blackgrass plant response rating,blackgrass [1]; 125 g ai/ha,90
same,Blackgrass plant response rating,blackgrass [1]; 250 g ai/ha,90
same,"Plant response rating, Blackgrass",blackgrass [1]; [5],85
same,Wheat plant response rating,"wheat, winter; 62 g ai/ha",0
same,Wheat plant response rating,"wheat, winter; 125 g ai/ha",35
same,Wheat plant response rating,"wheat, winter; 250 g ai/ha",60
same,"Plant response rating, Wheat","wheat, winter; [5]",0
same,"Crabgrass, Large plant response rating",large (Lg) crabgrass; 62 g ai/ha,100
same,"Crabgrass, Large plant response rating",large (Lg) crabgrass; 125 g ai/ha,100
same,"Crabgrass, Large plant response rating",large (Lg) crabgrass; 250 g ai/ha,100
same,"Plant response rating, Crabgrass, Large",large (Lg) crabgrass; [5],98
same,"Plant response rating, Wheat",wheat; [6],70
same,"Plant response rating, Wheat",wheat; [7],80
same,"Plant response rating (0 to 100), Soybean","soybean [2]; 125 g ai/ha, postemergence",90
same,"Plant response rating (0 to 100), Soybean","soybean [2]; 250 g ai/ha, postemergence",90
same,"Plant response rating, Soybean",soybean [2]; [8],75
same,"Plant response rating, Soybean","soybean [2]; Postemergence, 62 g ai/ha",85
same,Barnyardgrass plant response rating,barnyardgrass; [6],100
same,Barnyardgrass plant response rating,"barnyardgrass; 500 g ai/ha, 0 to 100 scale, 0 no effect, 100 complete control, approx. 10 days",100
same,"Plant response rating, Morningglory",morningglory; [6],90
same,"Plant response rating, Morningglory",morningglory; [7],100
same,"Plant response rating (0 to 100), Blackgrass","blackgrass [3]; 125 g ai/ha, postemergence",30
same,"Plant response rating (0 to 100), Blackgrass","blackgrass [3]; 250 g ai/ha, postemergence",70
same,"Plant response rating, Blackgrass",blackgrass [3]; [8],5
same,"Plant response rating, Blackgrass","blackgrass [3]; Postemergence, 62 g ai/ha",30
same,Soybean plant response rating,soybean [4]; 62 g ai/ha,90
same,Soybean plant response rating,soybean [4]; 125 g ai/ha,90
same,Soybean plant response rating,soybean [4]; 250 g ai/ha,90
same,"Plant response rating, Soybean",soybean [4]; [5],75
same,"Plant response rating (0 to 100), Foxtail, Giant","giant foxtail; 125 g ai/ha, postemergence",15
same,"Plant response rating (0 to 100), Foxtail, Giant","giant foxtail; 250 g ai/ha, postemergence",85
same,"Plant response rating, Foxtail, Giant",giant foxtail; [8],5
same,"Plant response rating, Foxtail, Giant","giant foxtail; Postemergence, 62 g ai/ha",10
same,"Plant response rating, Rice",rice,40
same,"Plant response rating (0 to 100), Ragweed","ragweed; 125 g ai/ha, postemergence",40
same,"Plant response rating (0 to 100), Ragweed","ragweed; 250 g ai/ha, postemergence",90
same,"Plant response rating, Ragweed",ragweed; [8],15
same,"Plant response rating, Ragweed","ragweed; Postemergence, 62 g ai/ha",30
FCc1cccc(Oc2ncc(Br)cn2)c1-n1cc(C(F)(F)F)cn1 [Compound 120],"Plant response rating, Wheat","wheat; 31 g ai/ha, 0 to 100 scale, 0 no effect, 100 complete control",0
same,"Plant response rating (0 to 100), Soybean",soybean [2]; [9],30
same,"Plant response rating, Soybean",soybean [2]; [10],80
same,"Plant response rating, Soybean","soybean [2]; Postemergence, 62 g ai/ha",30
same,"Plant response rating (0 to 100), Oilseed Rape",oilseed rape; [9],5
same,"Plant response rating, Oilseed Rape",oilseed rape; [10],15
same,"Plant response rating, Oilseed Rape","oilseed rape; Postemergence, 62 g ai/ha",5
same,Barnyardgrass plant response rating (0 to 100 scale),barnyardgrass; 31 g ai/ha,20
same,"Plant response rating, Barnyardgrass",barnyardgrass; [6],70
same,"Plant response rating (0 to 100), Blackgrass",blackgrass [3]; [9],0
same,"Plant response rating, Blackgrass",blackgrass [3]; [10],30
same,"Plant response rating, Blackgrass",blackgrass [3]; [8],5
same,"Plant response rating, Blackgrass","blackgrass [3]; Postemergence, 62 g ai/ha",5
same,"Plant response rating (0 to 100), Foxtail, Giant",giant foxtail; [9],5
same,"Plant response rating, Foxtail, Giant",giant foxtail; [10],35
same,"Plant response rating, Foxtail, Giant","giant foxtail; Postemergence, 62 g ai/ha",10
same,"Plant response rating, Rice",rice,0
same,"Plant response rating (0 to 100), Ragweed",ragweed; [9],10
same,"Plant response rating, Ragweed",ragweed; [10],60
same,"Plant response rating, Ragweed","ragweed; Postemergence, 62 g ai/ha",25
Fc1cccc(Oc2ncc(Cl)cn2)c1-n1cc(C2CC2)nn1 [Compound 155],"Plant response rating, Wheat","wheat; 1000 g ai/ha, 0 to 100 scale, 0 no effect, 100 complete control",90
same,"Plant response rating (0 to 100), Soybean",soybean [2]; [9],5
same,Soybean plant response rating,soybean [2]; [11],70
same,"Plant response rating, Soybean",soybean [2]; [10],80
same,"Plant response rating, Soybean","soybean [2]; Postemergence, 62 g ai/ha",75
same,"Plant response rating (0 to 100), Oilseed Rape",oilseed rape; [9],60
same,Oilseed Rape plant response rating,oilseed rape; [12],50
same,"Plant response rating, Oilseed Rape",oilseed rape; [10],80
same,"Plant response rating, Oilseed Rape","oilseed rape; Postemergence, 62 g ai/ha",50
same,Barnyardgrass plant response rating,"barnyardgrass; 1000 g ai/ha, 0 to 100 scale, 0 no effect, 100 complete control, approx. 10 days",100
same,"Plant response rating (0 to 100), Blackgrass",blackgrass [3]; [9],0
same,Blackgrass plant response rating,blackgrass [3]; [11],5
same,"Plant response rating, Blackgrass",blackgrass [3]; [10],5
same,"Plant response rating, Blackgrass","blackgrass [3]; Postemergence, 62 g ai/ha",5
same,"Plant response rating (0 to 100), Foxtail, Giant",giant foxtail; [9],0
same,"Foxtail, Giant plant response rating",giant foxtail; [11],5
same,"Plant response rating, Foxtail, Giant",giant foxtail; [10],25
same,"Plant response rating, Foxtail, Giant","giant foxtail; Postemergence, 62 g ai/ha",15
same,"Plant response rating, Rice",rice,50
same,"Plant response rating (0 to 100), Ragweed",ragweed; [9],50
same,Ragweed plant response rating,ragweed; [11],55
same,"Plant response rating, Ragweed",ragweed; [10],85
same,"Plant response rating, Ragweed","ragweed; Postemergence, 62 g ai/ha",70
N#Cc1cccc(Oc2ncc(Cl)cn2)c1-n1cc(-n2ccc(C(F)(F)F)n2)cn1 [Compound 284],"Plant response rating, Wheat","wheat; 125 g ai/ha, 0 to 100 scale, 0 no effect, 100 complete control",20
same,"Plant response rating, Wheat",wheat; [13],20
same,Soybean plant response rating,soybean [2]; [11],35
same,"Plant response rating, Soybean",soybean [2]; [10],85
same,"Plant response rating (0 to 100), Soybean","soybean [2]; 250 g ai/ha, postemergence",65
same,"Plant response rating, Soybean",soybean [2]; [14],40
same,Oilseed Rape plant response rating,oilseed rape; [12],70
same,"Plant response rating, Oilseed Rape",oilseed rape; [10],80
same,"Plant response rating (0 to 100), Oilseed Rape","oilseed rape; 250 g ai/ha, postemergence",80
same,"Plant response rating, Oilseed Rape",oilseed rape; [14],70
same,"Barnyardgrass plant response rating (0 to 100 scale, 0 is no effect, 100 is complete control)",barnyardgrass; 125 g ai/ha,60
same,Barnyardgrass plant response rating,barnyardgrass; [13],90
same,Blackgrass plant response rating,blackgrass [3]; [11],5
same,"Plant response rating, Blackgrass",blackgrass [3]; [10],5
same,"Plant response rating (0 to 100), Blackgrass","blackgrass [3]; 250 g ai/ha, postemergence",5
same,"Plant response rating, Blackgrass",blackgrass [3]; [14],5
same,"Foxtail, Giant plant response rating",giant foxtail; [11],10
same,"Plant response rating, Foxtail, Giant",giant foxtail; [10],20
same,"Plant response rating (0 to 100), Foxtail, Giant","giant foxtail; 250 g ai/ha, postemergence",25
same,"Plant response rating, Foxtail, Giant",giant foxtail; [14],10
same,"Plant response rating, Rice",rice,0
same,Ragweed plant response rating,ragweed; [11],55
same,"Plant response rating, Ragweed",ragweed; [10],50
same,"Plant response rating (0 to 100), Ragweed","ragweed; 250 g ai/ha, postemergence",80
same,"Plant response rating, Ragweed",ragweed; [14],55
